The source of these data is patent EP0974593A1, “Artemisinin derivatives as antiparasitic agents” (The Hong Kong University of Science & Technology, priority 1998, dated 2000).

Test [1] deals with Plasmodium Falciparum W2 strain (chloroquine resistant). The test is described as follows: In vitro activity against Plasmodium falciparum, 3H-hypoxanthine incorporation assay, W2 strain. The settings on record: W2, 66 h; for IC50 / IC90: Plasmodium falciparum. In kind it is cell-based. The source says: (§1) (a) InVitro Activity against Plasmodium Falciparum
(§2) Two parasite strains - W2 resistant to chloroquine, and D6 sensitive to chloroquine but […] were used. In Table I below, the best compounds should show no cross resistance between the two strains.
(§3) The assay relies on incorporation of radiolabelled hypoxanthine by the parasite and inhibition of incorporation is attributed to activity of known or candidate antimalarial drugs. For each assay, proven antimalarials such as chloroquine, mefloquine, quinine, artemisinin and pyrimethamine were used as controls. The incubation period was 66 hours, and the starting parasitemia was 0.2% with 1% hematocrit. The medium was an RPMI-1640 culture with no folate or p-aminobenzoic acid. Albumax rather than 10% normal heat inactivated human plasma was used as, with Albumax, less protein binding is observed, and compounds elicit slightly higher activities in this model. If a compound was submitted with no prior knowledge of activity, it was dissolved directly in dimethyl sulphoxide (DMSO), and diluted 400 fold with complete culture medium. […]. These dilutions were performed automatically by a Biomek 1000 Liquid Handling System in 96-well microtiter plates. The diluted drugs were then transferred to test plates, 200 µL of parasitized erythrocytes were added, and incubated at 37°C in a controlled environment of 5% CO2, 5% O2 and 90% N2. After […], 25 µL of ^3H-hypoxanthine was added, and the plates incubated for an additional 24 hours. After 66 hours, the plates were frozen at -70°C to lyse the red cells, and then thawed and harvested onto glass fiber filter mats in a 96-well harvester. The filter mats were then counted in a scintillation counter. For each drug, the concentration response profile was determined and 50% and 90% inhibitory concentrations (IC50, IC90 […]) were determined by a non-linear logistic dose response analysis program.
(§4) A prescreen format can be used wherein a 3-dilution assay may be used to determine activity at high medium or low concentrations. […]. These were performed in duplicate on a 96-well format plate with 14 test compounds and one known (standard) compound per plate. The system was automated with a Biomek diluter for mixing and diluting the drugs, and adding drugs and parasites to a test plate.
(§5) In the prescreen format, if the ANALYSIS FIELD (AF) has a "<", then the compound was "very active" and the IC values are most likely to be below the last dilution value (in nanograms/ml), which is listed next to AF. In most cases, these compounds were run again at lower starting concentration to determine the true IC value. If the AF has a ">", then the IC value is greater than the prescreen dilution value; thus "AF>250" means that the IC value is greater than 250 ng ml^-1 and no further screening is carried out. In such cases, values of 0.00 are entered for IC values.

Test [2] deals with Plasmodium Falciparum D6 strain (chloroquine sensitive). The test is described as follows: In vitro activity against Plasmodium falciparum, 3H-hypoxanthine incorporation assay, D6 strain. In kind it is cell-based. The settings on record: D6, 66 h; for IC50 / IC90: Plasmodium falciparum; for IC50: read-out: In vitro activity: IC50; for IC90: read-out: In vitro activity: IC90.
Source text: as §1, §2, §3, §4, §5

Where [3] appears, read: read-out: In vitro activity: IC50, W2 strain (chloroquine resistant), 66 hours incubation, Albumax medium.
[4] abbreviates: read-out: In vitro activity: IC90, W2 strain (chloroquine resistant), 66 hours incubation, Albumax medium.
Setting [5] is: D6 strain (chloroquine sensitive, resistant to mefloquine), 66 hours incubation, Albumax medium.

Converted amounts (≈) assume the structure as drawn. Like-named read-outs stand apart in the source and are kept apart here.

In the case of `C[C@@H]1CC[C@H]2[C@@H](C)C(=O)N[C@@H]3O[C@@]4(C)CC[C@@H]1[C@]32OO4` [Example 1, 11-azaartemisinin], the IC50 in test [1] (read-out: In vitro activity: IC50) stood at 1.73 ng/mL (≈ 6.15 nM); in test [2], 2.6 ng/mL (≈ 9.24 nM). The IC90 in test [1] (read-out: In vitro activity: IC90) amounted to 2.24 ng/mL (≈ 7.96 nM); in test [2], 3.6 ng/mL (≈ 12.8 nM).
On to `C[C@@H]1CC[C@H]2[C@@H](C)C(=O)N(Cc3ccccc3F)[C@@H]3O[C@@]4(C)CC[C@@H]1[C@@]23OO4` [Example 2, 11-aza-N-(2-fluorobenzyl)artemisinin], for which the figures for the IC50 in test [1] (setting [3]) and in test [2] (setting [5]) were 0.775 ng/mL (≈ 1.99 nM) and 0.64 ng/mL (≈ 1.64 nM), respectively. Also, the IC90 in test [1] (setting [4]) was 0.975 ng/mL (≈ 2.5 nM); in test [2] (setting [5]) it was 0.99 ng/mL (≈ 2.54 nM).
Regarding `C[C@@H]1CC[C@H]2[C@@H](C)C(=O)N(Cc3ccc(F)cc3)[C@@H]3O[C@@]4(C)CC[C@@H]1[C@@]23OO4` [Example 4], the results for the “In vitro activity: (IC10)” value in test [1] and in test [2] were 0.31 ng/mL and 1.13 ng/mL, respectively.
Take `C[C@@H]1CC[C@H]2[C@@H](C)C(=O)N(Cc3cccc(F)c3)[C@@H]3O[C@@]4(C)CC[C@@H]1[C@@]23OO4` [Example 5]: the IC50 amounted to 0.58 ng/mL (≈ 1.49 nM) in test [1] (setting [3]) and 0.79 ng/mL (≈ 2.03 nM) in test [2] (setting [5]). Besides, the values for the 90% effect concentration (IC90) in test [1] (setting [4]) and in test [2] (setting [5]) were 0.95 ng/mL (≈ 2.44 nM) and 1.26 ng/mL (≈ 3.24 nM), respectively.
As for `C[C@@H]1CC[C@H]2[C@@H](C)C(=O)N(Cc3ccccc3)[C@@H]3O[C@@]4(C)CC[C@@H]1[C@@]23OO4` [Example 6], the IC50 was 3.8 ng/mL (≈ 10.2 nM) in test [1] (setting [3]) and 3.62 ng/mL (≈ 9.74 nM) in test [2] (setting [5]). The results for the IC90 in test [1] (setting [4]) and in test [2] (setting [5]) were 4.68 ng/mL (≈ 12.6 nM) and 6.68 ng/mL (≈ 18 nM), respectively.

In general, IC50 refers to the point on the concentration scale where inhibition reaches its midpoint. What is called IC90 is the concentration at which the effect reaches the 90% level.
